From paper PMC4264242, “Androgen Receptor Antagonists and Anti-Prostate Cancer Activities of Some Newly Synthesized Substituted Fused Pyrazolo-, Triazolo- and Thiazolo-Pyrimidine Derivatives” (International Journal of Molecular Sciences, 2014)
Numbering of substitutions follows the chain as printed. Entries after “also recorded” stand apart in the source; their conditions may differ.

How the values were obtained:
mutant AR in LNCaP cells = molecular target: T1, mutant AR in LNCaP cells (Homo sapiens, UniProt P10275, T878A); assay: Anti-prostate cancer screening, anti-androgenic bioassay (AR transactivation) in LNCaP cells; format: cell-based; conditions: 1 nM DHT, 24 h
T1 construct: endogenous in cells; host or cells: LNCaP cells (only reporter plasmids transfected)
T1 sequence (P10275 1-920 T878A): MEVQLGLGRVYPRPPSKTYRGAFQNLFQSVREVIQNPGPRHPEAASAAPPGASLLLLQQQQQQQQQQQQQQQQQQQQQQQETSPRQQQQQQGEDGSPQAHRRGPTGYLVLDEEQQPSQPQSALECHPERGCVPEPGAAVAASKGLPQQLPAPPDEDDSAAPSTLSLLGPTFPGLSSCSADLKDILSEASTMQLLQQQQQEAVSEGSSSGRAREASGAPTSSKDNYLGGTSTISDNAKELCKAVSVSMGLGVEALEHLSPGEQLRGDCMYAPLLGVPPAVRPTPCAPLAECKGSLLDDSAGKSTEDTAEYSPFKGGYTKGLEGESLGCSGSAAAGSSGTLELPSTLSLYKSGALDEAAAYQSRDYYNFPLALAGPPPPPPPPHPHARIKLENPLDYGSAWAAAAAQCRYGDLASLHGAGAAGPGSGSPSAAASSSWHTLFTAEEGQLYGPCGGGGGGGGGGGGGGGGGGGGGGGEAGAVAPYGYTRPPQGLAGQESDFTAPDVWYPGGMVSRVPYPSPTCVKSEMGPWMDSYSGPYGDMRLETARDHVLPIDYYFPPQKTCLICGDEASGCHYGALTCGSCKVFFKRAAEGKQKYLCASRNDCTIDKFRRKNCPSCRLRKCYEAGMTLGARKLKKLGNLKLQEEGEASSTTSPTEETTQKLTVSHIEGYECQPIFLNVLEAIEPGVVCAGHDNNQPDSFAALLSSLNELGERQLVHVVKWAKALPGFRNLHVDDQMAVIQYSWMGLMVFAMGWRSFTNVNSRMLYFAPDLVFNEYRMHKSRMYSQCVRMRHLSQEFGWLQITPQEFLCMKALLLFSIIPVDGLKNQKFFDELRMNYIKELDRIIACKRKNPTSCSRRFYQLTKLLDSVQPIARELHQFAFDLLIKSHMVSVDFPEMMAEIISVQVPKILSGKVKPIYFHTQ
Protocol: (§1) Human prostate cancer LNCaP and PC-3 cells were maintained in RPMI medium and Dulbecco’s minimum essential medium (DMEM), respectively. Both media were supplemented with penicillin (25 units/mL), streptomycin ([…]), and 10% fetal calf serum. For the androgen receptor transactivation assay, an androgen-dependent reporter gene transcription test was employed as the primary screening for potential anti-androgen identification. This assay was first performed in LNCaP cells, which express a clinically relevant mutant AR. […] Wild type AR transactivation assay was performed in PC-3 host cells, which lack an endogenous, functional AR. The method and conditions of cell and gene transfection have been described previously. In brief, cells were plated in 24-well tissue culture dishes for 24 (PC-3 cells) or 48 (LNCaP cells) h prior to transfection. Subsequently, LNCaP cells were transfected with a reporter gene, MMTV-luciferase, which contains a MMTV-long terminal repeat (LTR) promoter and an androgen receptor binding element, and Renilla Luciferase Control Reporter Vectors 40 (PRL-SV40), which served as an internal control for transfection efficiency. PC-3 cells were transfected with a wild type AR expression plasmid, plasmide gene-5 androgen recptor (pSG5AR), in addition to the above-mentioned MMTV-luciferase reporter gene and PRL-SV40 internal control. SuperFect (Qiagen, Chatsworth, CA, USA) was employed as the transfection reagent following the manufacturer’s recommendations. At the end of a 5-h transfection, the medium was changed to DMEM or RPMI supplemented with 10% charcoal dextran-stripped, i.e., androgen-depleted, serum. After 24 h, the cells were treated with 1 nM of DHT and/or test compounds at the designated concentrations.
(§2) After 24 h the cells were harvested for luciferase activity assay using the Dual Luciferase Assay System (Promega, Madison, WI, USA.). The derived data was expressed as relative luciferase activity normalized to the internal luciferase control.

castrated immature rats = assay: In vivo anti-androgenic activity in castrated immature rats treated with testosterone propionate; set-up: species or system rat; conditions: for % (Inhibition), in vivo anti-androgen activity: inhibition of TP effect (TP 0.5 mg/kg s.c. once daily for 5 days), tested compound 10-30 mg/kg p.o.; for ED50: Rattus norvegicus, read-out: ED50, in vivo anti-androgen activity
Source text: […] male Wistar rats were obtained from the Animal House Colony, Research Institute of Ophthalmology, Giza, Egypt. Prepubertal male rats aged 3 weeks were castrated using the scrotal route under ether anesthesia.

[1] = molecular target: T2, wild type AR in PC-3 cells (Homo sapiens, UniProt P10275); assay: Anti-prostate cancer screening, anti-androgenic bioassay (wild type AR transactivation) in PC-3 cells; format: cell-based; conditions: PC-3 cells transfected with wild type AR, 1 nM DHT, 24 h
T2 construct: expressed in transfected cells; host or cells: PC-3 cells (lack endogenous functional AR), transient transfection with SuperFect
T2 sequence (P10275 1-920): T1 sequence (P10275 1-920 T878A) with A878T
Protocol: as §1, §2

Question: What does the source list for NNc1nc2c(ccc3ccccc32)s1 [Compound 1, 1-(naphtho[1,2-d]thiazol-2-yl)hydrazine]?
Answer: IC50 LNCaP, anti-prostate cancer activity (mutant AR in LNCaP cells): devoid from any activities; also recorded: Inactive; ED50, in vivo anti-androgen activity (castrated immature rats; castrated immature rats, TP 0.5 mg/kg s.c., compound p.o.): Inactive; % (Inhibition), in vivo anti-androgen activity (castrated immature rats): Inactive; % (Inhibition), in vivo anti-androgen activity (castrated immature rats; listed as compound 1): devoid from any activities; IC50 PC-3, anti-prostate cancer activity [1]: devoid from any activities; also recorded: Inactive

Question: Which IC50 (mutant AR in LNCaP cells) does the source give for N#Cc1cnn(-c2nc3c(ccc4ccccc43)s2)c1N [Compound 2, 2-[3-Amino-4-cyanopyrazol-2-yl]naphthalino[1,2-d]thiazole] here?
Answer: 51.5 nM

Question: What about the ED50 (castrated immature rats) of the same compound?
Answer: 0.049 mg/kg

Question: And the “% (Inhibition), in vivo anti-androgen activity” value (“% (Inhibition)” below) (castrated immature rats)?
Answer: 95.49%

Question: What about the IC50 [1] of the same compound?
Answer: 157 nM

Question: Which IC50 (mutant AR in LNCaP cells) does the source give for Nc1ncnc2c1cnn2-c1nc2c(ccc3ccccc32)s1 [Compound 3] here?
Answer: 58.6 nM

Question: What about the ED50 (castrated immature rats) of the same compound?
Answer: 0.063 mg/kg

Question: And the “% (Inhibition)” value (castrated immature rats)?
Answer: 91%

Question: What about the IC50 [1] of the same compound?
Answer: 177 nM

Question: With Nc1n[nH]c2c1cnn2-c1nc2c(ccc3ccccc32)s1 [Compound 4] as the compound, how does the IC50 (mutant AR in LNCaP cells) read?
Answer: 56.6 nM

Question: And the ED50 (castrated immature rats)?
Answer: 0.051 mg/kg

Question: What about the “% (Inhibition)” value (castrated immature rats) of the same compound?
Answer: 93.98%

Question: And the IC50 [1]?
Answer: 179 nM

Question: With Nc1nc(=S)[nH]c2c1cnn2-c1nc2c(ccc3ccccc32)s1 [Compound 5, 2-[6-Amino-3H-4-thiopyrimidino[4,5-c]pyrazol-2-yl]naphthalino[1,2-d]thiazole] as the compound, how does the IC50 (mutant AR in LNCaP cells) read?
Answer: 64.3 nM

Question: And the ED50 (castrated immature rats)?
Answer: 0.089 mg/kg

Question: And the “% (Inhibition)” value (castrated immature rats)?
Answer: 89.09%

Question: What about the IC50 [1] of the same compound?
Answer: 190 nM

Question: Which IC50 (mutant AR in LNCaP cells) does the source give for N=c1sc(=S)[nH]c2c1cnn2-c1nc2c(ccc3ccccc32)s1 [Compound 6, 2-[6-Imino-3H-4-thiothiazino[4,5-c]pyrazol-2-yl]naphthalino[1,2-d]thiazole] here?
Answer: 72.4 nM

Question: And the ED50 (castrated immature rats)?
Answer: 0.092 mg/kg

Question: And the “% (Inhibition)” value (castrated immature rats)?
Answer: 88.76%

Question: What about the IC50 [1] of the same compound?
Answer: 201 nM

Question: With CCO/C=N\c1c(C#N)cnn1-c1nc2c(ccc3ccccc32)s1 [Compound 8, 2-[3-Ethylimidoformat-4-cyanopyrazol-2-yl]naphthalino[1,2-d]thiazole] as the compound, how does the IC50 (mutant AR in LNCaP cells) read?
Answer: 78.5 nM

Question: And the ED50 (castrated immature rats)?
Answer: 0.097 mg/kg

Question: What about the “% (Inhibition)” value (castrated immature rats) of the same compound?
Answer: 85.43%

Question: And the IC50 [1]?
Answer: 279 nM

Question: How did the IC50 (mutant AR in LNCaP cells) turn out when N#Cc1cnn(-c2nc3c(ccc4ccccc43)s2)c1/N=C\NN [Compound 9, 2-[3-Imidoformic hydrazido-4-cyanopyrazol-2-yl]naphthalino[1,2-d]thiazole] was run?
Answer: 76.6 nM

Question: And the ED50 (castrated immature rats)?
Answer: 0.095 mg/kg

Question: What about the “% (Inhibition)” value (castrated immature rats) of the same compound?
Answer: 86.56%

Question: What about the IC50 [1] of the same compound?
Answer: 269 nM

Question: Which IC50 (mutant AR in LNCaP cells) does the source give for Cc1nc2c3cnn(-c4nc5c(ccc6ccccc65)s4)c3ncn2n1 [Compound 10, 2-[6-Methyl[1,2,4]triazolo[2,3-c]pyrimidino[6,5-c]pyrazol-2-yl]naphthalino[1,2-d]thiazole] here?
Answer: 43.5 nM

Question: What about the ED50 (castrated immature rats) of the same compound?
Answer: 0.071 mg/kg

Question: And the “% (Inhibition)” value (castrated immature rats)?
Answer: 98.87%

Question: And the IC50 [1]?
Answer: 109 nM

Question: What does the source list for N=c1c2cnn(-c3nc4c(ccc5ccccc54)s3)c2ncn1NC(=O)c1ccccc1 [Compound 11]?
Answer: IC50 (mutant AR in LNCaP cells): 61.6 nM; ED50 (castrated immature rats): 0.045 mg/kg; % (Inhibition), in vivo anti-androgen activity (castrated immature rats): 90.01%; IC50 [1]: 180 nM

Question: Which results are given for CCOC1SCC(=O)N1c1c(C#N)cnn1-c1nc2c(ccc3ccccc32)s1 (stereo not shown) [Compound 12, 2-[3-(2-Ethoxy-4-oxo-5-dihydro-1,3-thiazol-3-yl)-4-cyanopyrazol-2-yl]-naphthalino[1,2-d]thiazole]?
Answer: IC50 (mutant AR in LNCaP cells): 80 nM; ED50 (castrated immature rats): 0.098 mg/kg; % (Inhibition), in vivo anti-androgen activity (castrated immature rats): 84.65%; IC50 [1]: 289 nM

Question: With CCOC1SCC2NC(=O)c3cnn(-c4nc5c(ccc6ccccc65)s4)c3N21 (stereo not shown) [Compound 13, 2-[3-Ethoxy-5-dihydro-6H-7-oxo-[1,3]thiazolo[3,4-b]pyrimidino[4,5-c]pyrazol-2-yl]naphthalino[1,2-d]thiazole] as the compound, how does the IC50 (mutant AR in LNCaP cells) read?
Answer: 49.6 nM

Question: What about the ED50 (castrated immature rats) of the same compound?
Answer: 0.047 mg/kg

Question: What about the “% (Inhibition)” value (castrated immature rats) of the same compound?
Answer: 97.56%

Question: What about the IC50 [1] of the same compound?
Answer: 146 nM
